Experimental data as given in ChEMBL document CHEMBL4130624, “Optimization of 1,4-Oxazine β-Secretase 1 (BACE1) Inhibitors Toward a Clinical Candidate” (J Med Chem, 2018).

Legend:
TK6 = assay: Genotoxicity in human TK6 cells at 80 ug/ml after 24 hrs in absence of rat liver S9 fraction by micronucleus assay; format: toxicity, cell-based; settings: tk6, 24 h
[1] = Fraction unbound in rat brain at 5 uM after 5 hrs by HPLC-MS/MS method based rapid equilibrium dialysis; format: ADME, tissue-based
[2] = biological target: Mu-type opioid receptor (Homo sapiens) (UniProt P35372); assay: Inhibition of recombinant human mu-type opioid receptor at 10 uM after 5 mins
Mu-type opioid receptor (Homo sapiens), sequence (P35372 whole entry): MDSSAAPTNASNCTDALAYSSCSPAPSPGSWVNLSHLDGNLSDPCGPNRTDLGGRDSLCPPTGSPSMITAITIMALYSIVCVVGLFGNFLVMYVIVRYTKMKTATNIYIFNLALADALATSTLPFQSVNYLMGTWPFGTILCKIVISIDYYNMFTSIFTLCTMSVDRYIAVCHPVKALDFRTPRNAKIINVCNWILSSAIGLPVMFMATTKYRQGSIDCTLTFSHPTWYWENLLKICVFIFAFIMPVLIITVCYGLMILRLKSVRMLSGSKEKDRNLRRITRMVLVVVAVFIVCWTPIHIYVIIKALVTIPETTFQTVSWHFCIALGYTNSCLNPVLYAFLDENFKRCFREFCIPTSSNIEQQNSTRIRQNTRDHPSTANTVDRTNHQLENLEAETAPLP

Canis familiaris = assay: Toxicity in Beagle dog assessed as induction of behavioural changes at 0.63 to 20 mg/kg, po qd for 1 day; format: organism-based, Canis lupus familiaris; settings: in vivo, 24 h
[3] = Drug metabolism in human liver microsomes at 1 uM after 15 mins in presence of NADPH by HPLC-MS/MS analysis; format: ADME, microsome; settings: read-out: Drug metabolism
[4] = Volume of distribution at steady state in Swiss mouse at 2.5 mg/kg, iv administered as bolus dose by LC-MS/MS analysis; format: ADME, organism-based; settings: in vivo, read-out: Vdss
[5] = Half life in Swiss mouse at 2.5 mg/kg, iv administered as bolus dose by LC-MS/MS analysis; format: ADME, organism-based; settings: in vivo

**Q.** What does the source list for `C[C@]1(c2cc(NC(=O)c3ccc(C#N)cn3)ccc2F)N=C(N)CO[C@H]1C(F)(F)F`?
**A.** Activity (TK6): Non-Toxic; fraction unbound at 5 h, 5 µM [1]: 0.03; inhibition [2]: 91%; Activity (Canis familiaris): Non-Toxic; metabolised at 0.25 h, 1 µM [3]: 2%; Vd [4]: 7.6 L/kg; half-life [5]: 1.4 h
